Experiments:
HCC95 cells = test: Cell proliferation and survival (cell cycle arrest, annexin V apoptosis); type: cell-based; conditions: FIG. 16
Procedure: (§1) Cell cycle arrest and apoptosis are increased by pramlintide and HDACi in HCC95 lung SCC and H1975 lung adenocarcinoma cell lines.
(§2) In fact, it was observed that both pramlintide and HDACi treatment reduces ΔNp63 in H1975 lung adenocarcinoma (LUAD) cells (FIG. 15). […] To investigate what effects panobinostat has on the glycolytic rate of HCC95 and H1975 cells, glycolysis was measured by ECAR showing in both […] glycolysis was decreased with treatment (FIG. 17).

H1975 cells = test: as above; type: cell-based; conditions: FIG. 16
Procedure: as §1, §2

[1] = tested on: spontaneous UV-driven cutaneous squamous cell carcinoma (cuSCC); test: Tumor regression in spontaneous UV-driven cuSCC model; type: in vivo; conditions: FIG. 3
Text: (§3) Here, is shown that deletion of the AN isoforms of p63 or p73 leads to metabolic reprogramming and regression of p53 deficient tumors (FIG. 1). […] When investigated further it was shown that pramlintide suppresses 4Np63 expression (FIG. 4). […] These findings were validated across the sensitive cell lines Colo16 and RDEB2 and the resistant cell lines SCCIC1 and SRB12 for pramlintide (symlin) administration and regulation by ΔNp63 showing reduced levels for CYR61 and CTGF in the sensitive lines and no effect or increases in resistant lines (FIG. 6). A similar observation was also made with the F-box protein FBXO16. […] Looking at additional cell types, ΔNp63 was expressed in sensitive cells but not resistant cells (FIG. 9). To see if the regulation pattern for CYR61, CTGF, and FBXO16 was maintained in HNSCC cell lines, the expression level for each was measured in SQ20B and FaDu cells with and without the application of pramlintide (symlin) (FIG. 10). As for the Sensitive cuSCC lines, the sensitive HNSCC lines upregulate FBXO16 and downregulate CYR61 and CTGF in response to both pramlintide showing that pramlintide mediated degradation of ΔNp63 affects target gene expression. Thus, target genes cay be used as a biomarker of responsiveness to pramlintide. We next investigated the effect of pramlintide (symlin) on ΔNp63 expression levels in SQ20B (FIG. 11) and FaDu (FIG. 12) cell lines.

CYR61 = test: Expression of ΔNp63 target gene CYR61; type: cell-based
Text: (§4) Sensitive lines downregulate CYR61 and CTGF in response to both pramlintide and direct siRNA-mediated knockdown of ΔNp63 showing that pramlintide mediated degradation of ΔNp63 affects target gene expression. Resistant lines upregulate CYR61 and CTGF in response to both pramlintide and direct siRNA-mediate knockdown of ΔNp63.
as §3

[2] = tested on: H1975 lung adenocarcinoma cells; test: Glycolytic rate measured by ECAR; type: cell-based; conditions: FIG. 17
Procedure: (§5) Glycolysis as measured by ECAR in HCC95 lung SCC and H1975 lung adenocarcinoma cells are decreased by pramlintide.
as §2

HCC95 lung SCC cells = test: Glycolytic rate measured by ECAR; type: cell-based; conditions: FIG. 17
Procedure: as §5, §2

CTGF = test: Expression of ΔNp63 target gene CTGF; type: cell-based
Text: as §4, §3

RDEB2 = test: Sensitivity of cuSCC cell line to pramlintide (inhibition curve); type: cell-based
SRB12 cells = test: Radiation treatment with and without pramlintide; type: cell-based; conditions: pramlintide at the IC40, FIG. 21
Procedure: During the experiments it was observed that Pramlintide induces ROS in in-vivo in tumors (FIG. 20). To investigate whether because of its effect on ROS pramlintide would have a synergistic effect on radiation sensitivity, SRB12 cells were treated with radiation with and without the presence of pramlintide. […] Accordingly, in one aspect, disclosed herein are methods of increasing the sensitivity of a cancer (such as for example, cutaneous squamous cell carcinoma (cuSCC) or lung cancer or any cancer comprising a p53, p63, or p73 mutation or aberrant expression thereof) in a subject to radiation therapy comprising administering to the subject an agent that inhibits ΔNp63 and/or ΔNp73. In one aspect the agent that inhibits ΔNp63 and/or ΔNp73 comprises an inhibitor of glycolysis (such as, for example, an amylin analog including but not limited to pramlintide).

[3] = tested on: p53 deficient lung cancers; test: Tumor regression in p53 deficient tumors; type: in vivo
Text: as §3

[4] = tested on: p53 deficient thymic lymphomas; test: Tumor regression in p53 deficient tumors; type: in vivo
Text: as §3

FBXO16 = test: Expression of ΔNp63 target gene FBXO16; type: cell-based
Text: Sensitive lines upregulate FBXO16 in response to both pramlintide and direct siRNA-mediate knockdown of ΔNp63 showing that pramlintide mediated degradation of ΔNp63 affects target gene expression. Thus target genes may be used as a biomarker of responsiveness to pramlintide. Resistant lines downregulate FBXO16 in response to both pramlintide and direct siRNA-mediate knockdown of ΔNp63 showing that pramlintide mediated degradation of ΔNp63 affects target gene expression.
as §3

ΔNp63 = ΔNp63 expression / protein levels (western blots); type: cell-based; conditions: for ΔNp63 protein expression: western blot
Text: as §3, §2

tumors = conditions: in-vivo; prior published studies; FIG. 20; cited from earlier work
[5] = tested on: cutaneous squamous cell carcinoma (cuSCC) cell lines; test: Glycolysis of cuSCC cell lines; type: cell-based
Colo16 = test: Sensitivity of cuSCC cell line to pramlintide (inhibition curve); type: cell-based
Text: (§6) Glycolysis, as measured by Extracellular Acidification Rate (Seahorse), is diminished by pramlintide administration (10 micromolar) in the sensitive SQ20B and FaDu Head and Neck SCC lines. […]
as §3

SRB12 = test: as above; type: cell-based
Text: as §6, §3

SCCIC1 = test: as above; type: cell-based
Text: as §6, §3

[6] = tested on: FaDu Head and Neck SCC line; test: Glycolysis measured by Extracellular Acidification Rate (Seahorse); type: cell-based; conditions: 10 micromolar; sensitive FaDu HNSCC line; FIG. 2D
Text: as §6

[7] = tested on: SQ20B Head and Neck SCC line; test: as above; type: cell-based; conditions: 10 micromolar; sensitive SQ20B HNSCC line; FIG. 2D
Text: as §6

[8] = resistant cuSCC lines (SCCIC1, SRB12), FIG. 6
[9] = sensitive HNSCC lines (SQ20B, FaDu), FIG. 10
[10] = sensitive cuSCC lines (Colo16, RDEB2), FIG. 6

Structure (SMILES): CC[C@H](C)[C@H](NC(=O)[C@@H]1CCCN1C(=O)CNC(=O)[C@H](Cc1ccccc1)NC(=O)[C@H](CC(N)=O)NC(=O)[C@H](CC(N)=O)NC(=O)[C@H](CO)NC(=O)[C@H](CO)NC(=O)[C@H](Cc1c[nH]cn1)NC(=O)[C@@H](NC(=O)[C@H](CC(C)C)NC(=O)[C@H](Cc1ccccc1)NC(=O)[C@H](CC(N)=O)NC(=O)[C@H](C)NC(=O)[C@H](CC(C)C)NC(=O)[C@H](CCCNC(=N)N)NC(=O)[C@H](CCC(N)=O)NC(=O)[C@@H](NC(=O)[C@H](C)NC(=O)[C@@H]1CSSC[C@H](NC(=O)[C@@H](N)CCCCN)C(=O)N[C@@H](CC(N)=O)C(=O)N[C@@H]([C@@H](C)O)C(=O)N[C@@H](C)C(=O)N[C@@H]([C@@H](C)O)C(=O)N1)[C@@H](C)O)C(C)C)C(=O)N[C@@H](CC(C)C)C(=O)N1CCC[C@H]1C(=O)N1CCC[C@H]1C(=O)N[C@H](C(=O)N[C@@H](CC(N)=O)C(=O)N[C@H](C(=O)NCC(=O)N[C@@H](CO)C(=O)N[C@@H](CC(N)=O)C(=O)N[C@H](C(=O)N[C@@H](Cc1ccc(O)cc1)C(N)=O)[C@@H](C)O)C(C)C)[C@@H](C)O [pramlintide]
- Apoptosis (annexin V staining) (HCC95 cells; HCC95): increased apoptosis
- Proliferation (HCC95 cells; HCC95 cells): reduced proliferation
- Cell cycle arrest (HCC95 cells; HCC95 lung SCC): increased
- Apoptosis (annexin V staining) (H1975 cells; H1975): increased apoptosis
- Proliferation (H1975 cells; H1975 cells): reduced proliferation
- Cell cycle arrest (H1975 cells; H1975 lung adenocarcinoma): increased
- Tumor regression [1]: induces tumor regression
- CYR61 expression (CYR61; [8]): upregulate
- CYR61 expression (CYR61; [9]): downregulate
- CYR61 expression (CYR61; [10]): downregulate
- Glycolysis (ECAR) [2]: decreased
- Glycolysis (ECAR) (HCC95 lung SCC cells): decreased
- CTGF expression (CTGF; [8]): upregulate
- CTGF expression (CTGF; [9]): downregulate
- CTGF expression (CTGF; [10]): downregulate
- Sensitivity to pramlintide (RDEB2): sensitive
- Sensitivity to radiation treatment (SRB12 cells): more sensitive to radiation treatment
- Tumor regression [3]: rapid tumor regression
- Tumor regression [4]: rapid tumor regression
- FBXO16 expression (FBXO16; resistant cuSCC lines, FIG. 8): downregulate
- FBXO16 expression (FBXO16; [9]): upregulate
- FBXO16 expression (FBXO16; sensitive cuSCC lines, FIG. 8): upregulate
- ΔNp63 expression (ΔNp63; FIG. 4, cell line not stated): suppresses ΔNp63 expression
- Dependence of ΔNp63 suppression on Fbxw7 expression (ΔNp63; FIG. 13): needs to be present
- ΔNp63 protein expression (ΔNp63; FaDu, FIG. 12): decreased protein expression
- ΔNp63 protein levels (ΔNp63; H1975 LUAD cells, FIG. 15): reduce ΔNp63
- ΔNp63 protein levels (ΔNp63; LUSC HCC95 cells, FIG. 14): reduces ΔNp63 protein levels
- ΔNp63 protein expression (ΔNp63; SQ20B, FIG. 11): decreased protein expression
- ROS in tumors (tumors): induces ROS
- Glycolysis ([5]; resistant cuSCC lines, FIG. 2A, 2C): do not exhibit this decrease in glycolysis
- Glycolysis ([5]; sensitive cells, FIGS. 2A-2D): suppresses glycolysis
- Sensitivity to pramlintide (Colo16): sensitive
- Sensitivity to pramlintide (SRB12): resistant
- Sensitivity to pramlintide (SCCIC1): resistant
- Glycolysis (Extracellular Acidification Rate) [6]: diminished
- Glycolysis (Extracellular Acidification Rate) [7]: diminished
